Assay results reported in US20140343095A1, “Methods of Diagnosing and Treating Multiple Sclerosis” (The Brigham and Women's Hospital, Inc., priority 2009, published 2014).

Assays:
[1] = tested on: TLR signaling proteins (TAK1, IRAK, Akt, p38-MAPK, PyK2, PKC, PI3K, ERK1/2); test: Reverse protein arrays / western blot of signaling after 15-HC; format: cell-based, mouse; conditions: microglia or macrophage cells, 1 μg/ml 15-HC
Description: 5A, a bar graph showing the time course of microglial PARP-1 activation by 15-oxysterols or 7-KC. PARP-1 activity is shown as Mean±SEM. 5B, a set of eight bar graphs showing signaling pathways activated by 15-HC. Microglial cells were stimulated with 15-HC and lysed at 1, 5, and 15 minutes. Signal transduction arrays were made with the lysates and probed with phospho-specific antibodies. 15a-HC increases the phosphorylation of TAK1 (top right), IRAK (top left), Akt (second row, left), p38 MAPK (second row, right), Pyk2 (third row, left), PKC (third row, right), PI3K (bottom row, left), and Erk1/2 (bottom row, right). (Mean±SEM) 5C, a bar graph showing activation of microglial PARP-1 by 15-HC in the presence of kinase inhibitors (Mean±SEM). […]
FIG. 8 is a set of eight pairs of bolts and bar graphs showing blockade of 15-HC triggered signaling pathways with blocking antibodies to TLR2. Microglial cells were incubated with […] of TLR2 blocking antibody or isotype control 45 minutes prior the addition of 15-HC to the medium and signal transduction events were analyzed by western blot. […]
The C8B4 microglial cell line, C8-D1A astrocytes and Raw 264.7 macrophages were purchased from ATCC (Manassas, Va., USA). […] Slides were then probed, processed and analyzed as previously described (Chan et al., Nat Med 10, 1390-1396 (2004)).

[2] = tested on: microglia, macrophages or astrocytes; test: TNF-α, CCL-2 and NO secretion by microglia, macrophages or astrocytes; format: cell-based, mouse; conditions: microglia, macrophages or astrocytes incubated with 15-HC
Description: FIGS. 4A-D show the results of activation of microglia, macrophages and astrocytes by 15-HC. 4A, a bar graph showing PARP-1 activity in a cell-free system where recombinant PARP-1 was incubated with DNA which as been pretreated with 15-HC or 7-KC. Non-pretreated DNA was used as a negative control and ssb-DNA as a positive control. Data is shown as Mean±SEM. 4B, a pair of bar graphs showing PARP-1 activity measured in microglia, macrophages or astrocytes incubated with 15-HC or 7-KC. The data is shown as the fold of change between vehicle and lipid-treated cells (Mean±SEM). 4C, a pair of bar graphs showing percent inhibition of PARP-1 activity in microglia, macrophages or astrocytes activated with 15-HC or 7-KC […] in the presence of 5-AIQ. 4D, a table showing levels of TNF-α, CCL-2 and NO secretion by 15-HC or 7-KC treated microglia, macrophages or astrocytes (Mean±SEM).
The effect of 15-HC on the activity of cellular PARP-1 was then investigated. […] Thus, 15-HC activates microglia, macrophages and astrocytes through a PARP-1-dependent mechanism.

TLR2 = test: PARP-1 activity in HEK-293 cells transfected or not with TLR2; format: cell-based, human
Description: FIGS. 6A-B are bar graphs showing that PARP-1 activation by 15-HC is mediated by TLR2 A. TLR2 blocking antibody abrogates PARP-1 activation by 15a-HC. 6A, a set of three bar graphs showing PARP-1 activity in microglia, macrophages or astrocytes activated with 15-HC in the presence of blocking antibodies to TLR2 or TLR4, or isotype controls (Mean±SEM). 6B, a bar graph showing PARP-1 activity in HEK-293 cells transfected or not with a plasmid coding for TLR2 and activated with 15-HC (Mean±SEM).

PARP-1 = PARP-1 (Mus musculus, UniProt P11103); test: Cellular PARP-1 activity in microglia, macrophages or astrocytes; format: cell-based; design: host or cells: C8B4 microglia, C8-D1A astrocytes, Raw 264.7 macrophages
Sequence of PARP-1 (P11103 whole entry): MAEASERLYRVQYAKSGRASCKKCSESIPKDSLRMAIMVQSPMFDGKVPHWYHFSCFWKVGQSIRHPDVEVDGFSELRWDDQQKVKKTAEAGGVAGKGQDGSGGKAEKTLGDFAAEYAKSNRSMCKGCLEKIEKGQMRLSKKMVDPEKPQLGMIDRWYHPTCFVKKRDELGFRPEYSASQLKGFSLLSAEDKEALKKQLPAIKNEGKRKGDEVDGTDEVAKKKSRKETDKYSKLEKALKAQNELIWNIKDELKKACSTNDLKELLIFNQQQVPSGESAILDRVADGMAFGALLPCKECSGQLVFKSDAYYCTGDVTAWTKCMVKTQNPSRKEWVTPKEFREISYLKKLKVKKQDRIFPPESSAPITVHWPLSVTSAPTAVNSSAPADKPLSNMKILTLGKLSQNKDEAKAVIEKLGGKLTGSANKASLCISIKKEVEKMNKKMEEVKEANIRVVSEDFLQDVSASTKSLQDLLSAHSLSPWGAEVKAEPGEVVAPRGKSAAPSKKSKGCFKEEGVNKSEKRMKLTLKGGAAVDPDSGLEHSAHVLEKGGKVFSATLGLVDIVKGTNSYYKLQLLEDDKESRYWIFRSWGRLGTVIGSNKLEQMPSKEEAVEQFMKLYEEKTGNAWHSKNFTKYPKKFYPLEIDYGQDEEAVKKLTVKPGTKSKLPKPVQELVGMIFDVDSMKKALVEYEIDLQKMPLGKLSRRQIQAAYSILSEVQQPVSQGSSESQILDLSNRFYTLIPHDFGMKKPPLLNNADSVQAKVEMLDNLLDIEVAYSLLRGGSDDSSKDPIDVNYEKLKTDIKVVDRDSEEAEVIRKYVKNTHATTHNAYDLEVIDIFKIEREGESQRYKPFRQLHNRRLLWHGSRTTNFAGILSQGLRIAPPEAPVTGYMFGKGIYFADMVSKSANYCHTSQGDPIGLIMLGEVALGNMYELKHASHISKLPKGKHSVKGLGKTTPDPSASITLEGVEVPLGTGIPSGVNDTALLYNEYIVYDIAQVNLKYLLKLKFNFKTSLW
Description: 5A, a bar graph showing the time course of microglial PARP-1 activation by 15-oxysterols or 7-KC. PARP-1 activity is shown as Mean±SEM. […] (Mean±SEM) 5C, a bar graph showing activation of microglial PARP-1 by 15-HC in the presence of kinase inhibitors (Mean±SEM).
PARP-1 activity was measured using PARP HT Universal Colorimetric Kit (Trevigen, MD, USA), following manufacturer instructions.
Cells were cultured with DMEM supplemented with 10% fetal bovine serum, 2 mM L-glutamine, 25 mM HEPES, and 1 mM sodium pyruvate. Cells in logarithmic growth were treated with 1 μg/ml of 15-HC for 1, 5, 15, and 30 minutes in serum-free medium. Blocking antibodies (Ebioscience, San Diego, Calif., USA) were added in some experiments at a final concentration of 10 ug/ml.

Erk / PARP-1 interaction = test: Co-immunoprecipitation of ERK and PARP-1; format: cell-based, mouse; conditions: microglia and macrophages activated with 15-HC
Description: 5A, a bar graph showing the time course of microglial PARP-1 activation by 15-oxysterols or 7-KC. PARP-1 activity is shown as Mean±SEM. 5B, a set of eight bar graphs showing signaling pathways activated by 15-HC. Microglial cells were stimulated with 15-HC and lysed at 1, 5, and 15 minutes. Signal transduction arrays were made with the lysates and probed with phospho-specific antibodies. 15a-HC increases the phosphorylation of TAK1 (top right), IRAK (top left), Akt (second row, left), p38 MAPK (second row, right), Pyk2 (third row, left), PKC (third row, right), PI3K (bottom row, left), and Erk1/2 (bottom row, right). (Mean±SEM) 5C, a bar graph showing activation of microglial PARP-1 by 15-HC in the presence of kinase inhibitors (Mean±SEM). 5D, an immunoblot and a bar graph showing the results of co-immunoprecipitaiton of ERK and PARP-1. Microglial cells were treated with 15-HC, lysed, immunoprecipitated with antibodies to phosphorylated Erk and then the pulled down material was probed with antibodies to PARP-1.
Thus, co-immunoprecipitation studies were carried out to better characterize the mechanisms by which 15-HC activates PARP-1. Microglia and macrophages were activated with 15-HC, ERK-specific antibodies were used for immunoprecipitation, and the pulled down material was probed with antibodies to PARP-1.

human monocytes = test: TNFa and CCL2 production by human monocytes; format: cell-based; conditions: 1 ug/ml 15-HC
Description: FIGS. 10A and 10B are bar graphs showing TLR2 mediated activation of PARP-1 by 15-HC. PARP-1 enzymatic activity (10A) and TNFalpha and CCL2 (10B) of PBMCs incubated with 15-HC alone, or in combination with AIQ, blocking antibodies to TLR2 or IC control.
To investigate whether the TLR2/PARP-1 axis is functional in human we activated PBMCs from healthy controls with 15-HC, in the presence or not of PARP-1 or TLR2 inhibitors. […] Thus, 15-HC activates PARP-1 in human monocytes by a TLR2 dependent pathway that results in the release of the pro-inflammatory mediators TNFa and CCL2.

15-hydroxycholestene [15-HC]
phosphorylation of TAK1, IRAK, Akt, p38-MAPK, PyK2, PKC, PI3K and ERK1/2 [1]: resulted in the phosphorylation | secretion of NO, CCL-2 and TNF-α [2]: resulted in the secretion | PARP-1 activity in HEK-293 cells transfected with TLR2 (TLR2; transfected with a plasmid coding for TLR2): significant activation | PARP-1 activity in HEK-293 cells (TLR2; untransfected, does not express TLR2): no significant effect | incubation time resulting in activation of PARP-1 (PARP-1; macrophages or microglia): 5 min | activation of cellular PARP-1 (PARP-1; macrophages, microglia or astrocytes): dose-dependent activation | interaction of Erk with PARP-1 (Erk / PARP-1 interaction): significant interaction | production of TNFa and CCL2 (human monocytes): resulted in production
